Experimental data as given in ChEMBL document CHEMBL1201862, “PubChem BioAssay data set” (2004).
Each block holds one molecule with its values, some of them ahead of it. Calls of active or inactive are those of the source.

Columns and labels:
Aminopeptidase N = target: T1, Aminopeptidase N (Plasmodium falciparum FcB1/Columbia, UniProt O96935); experiment: malaria alanyl aminopeptidase activity blockers – biochemical, fluorogenic H-Leu-NHMec substrate, 1536-well (AID 1445); set-up: species or system Plasmodium falciparum 3D7, 3D7
T1 sequence (O96935 whole entry): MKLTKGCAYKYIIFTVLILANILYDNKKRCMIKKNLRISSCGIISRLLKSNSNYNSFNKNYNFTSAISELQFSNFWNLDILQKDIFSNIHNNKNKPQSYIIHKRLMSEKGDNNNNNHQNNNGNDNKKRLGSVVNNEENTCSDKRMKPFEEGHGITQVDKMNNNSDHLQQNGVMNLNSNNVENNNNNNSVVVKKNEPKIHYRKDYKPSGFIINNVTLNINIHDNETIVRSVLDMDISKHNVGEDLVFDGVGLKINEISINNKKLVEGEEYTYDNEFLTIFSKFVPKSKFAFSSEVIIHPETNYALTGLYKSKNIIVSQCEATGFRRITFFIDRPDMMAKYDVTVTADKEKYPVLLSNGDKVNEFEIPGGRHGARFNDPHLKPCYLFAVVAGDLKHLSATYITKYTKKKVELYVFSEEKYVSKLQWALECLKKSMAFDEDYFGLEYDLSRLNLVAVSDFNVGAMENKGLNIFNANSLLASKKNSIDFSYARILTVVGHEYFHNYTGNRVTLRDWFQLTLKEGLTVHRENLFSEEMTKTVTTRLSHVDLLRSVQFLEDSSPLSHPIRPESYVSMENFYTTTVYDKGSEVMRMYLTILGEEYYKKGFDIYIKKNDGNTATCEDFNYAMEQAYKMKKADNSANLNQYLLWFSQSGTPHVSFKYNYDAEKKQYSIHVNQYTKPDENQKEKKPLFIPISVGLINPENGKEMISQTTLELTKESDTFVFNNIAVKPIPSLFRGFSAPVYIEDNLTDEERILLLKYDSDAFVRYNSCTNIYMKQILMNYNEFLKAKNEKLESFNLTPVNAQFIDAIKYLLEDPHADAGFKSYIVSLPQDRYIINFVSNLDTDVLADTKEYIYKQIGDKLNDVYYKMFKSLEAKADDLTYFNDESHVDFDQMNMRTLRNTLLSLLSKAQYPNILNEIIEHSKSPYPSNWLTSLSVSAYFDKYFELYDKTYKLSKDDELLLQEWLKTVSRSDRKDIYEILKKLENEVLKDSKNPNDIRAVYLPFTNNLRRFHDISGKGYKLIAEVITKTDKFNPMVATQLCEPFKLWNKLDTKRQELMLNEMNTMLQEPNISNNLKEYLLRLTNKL

[1] = target: Heat shock cognate 71 kDa protein (Homo sapiens, UniProt P11142); experiment: In Vitro Hsc70 Dose Response Fluorescence Polarization Assay. [Related pubchem assays: 1072 ]
Sequence of Heat shock cognate 71 kDa protein (P11142 whole entry): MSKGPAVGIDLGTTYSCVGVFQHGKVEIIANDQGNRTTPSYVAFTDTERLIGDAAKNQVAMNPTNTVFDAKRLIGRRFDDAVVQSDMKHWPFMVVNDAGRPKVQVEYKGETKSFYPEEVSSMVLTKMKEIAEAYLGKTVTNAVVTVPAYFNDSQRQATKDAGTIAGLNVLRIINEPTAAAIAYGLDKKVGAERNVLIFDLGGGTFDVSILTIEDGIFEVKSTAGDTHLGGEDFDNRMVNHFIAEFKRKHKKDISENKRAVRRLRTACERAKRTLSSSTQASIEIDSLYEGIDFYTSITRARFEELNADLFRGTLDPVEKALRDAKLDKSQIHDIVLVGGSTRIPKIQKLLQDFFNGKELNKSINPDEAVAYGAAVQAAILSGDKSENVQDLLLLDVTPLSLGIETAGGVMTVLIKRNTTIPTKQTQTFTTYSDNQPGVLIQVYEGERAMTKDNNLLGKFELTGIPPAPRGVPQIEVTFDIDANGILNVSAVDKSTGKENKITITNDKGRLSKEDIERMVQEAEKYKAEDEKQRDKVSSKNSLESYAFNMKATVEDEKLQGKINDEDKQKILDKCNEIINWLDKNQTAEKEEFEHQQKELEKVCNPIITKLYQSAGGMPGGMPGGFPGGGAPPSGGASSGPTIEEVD

[2] = target: Heat shock 70 kDa protein 1A (Homo sapiens, UniProt P0DMV8); experiment: inhibition of Hsp70 binding activity – biochemical, fluorescence polarization, SAR follow-up (AID 1072)
Sequence of Heat shock 70 kDa protein 1A (P0DMV8 whole entry): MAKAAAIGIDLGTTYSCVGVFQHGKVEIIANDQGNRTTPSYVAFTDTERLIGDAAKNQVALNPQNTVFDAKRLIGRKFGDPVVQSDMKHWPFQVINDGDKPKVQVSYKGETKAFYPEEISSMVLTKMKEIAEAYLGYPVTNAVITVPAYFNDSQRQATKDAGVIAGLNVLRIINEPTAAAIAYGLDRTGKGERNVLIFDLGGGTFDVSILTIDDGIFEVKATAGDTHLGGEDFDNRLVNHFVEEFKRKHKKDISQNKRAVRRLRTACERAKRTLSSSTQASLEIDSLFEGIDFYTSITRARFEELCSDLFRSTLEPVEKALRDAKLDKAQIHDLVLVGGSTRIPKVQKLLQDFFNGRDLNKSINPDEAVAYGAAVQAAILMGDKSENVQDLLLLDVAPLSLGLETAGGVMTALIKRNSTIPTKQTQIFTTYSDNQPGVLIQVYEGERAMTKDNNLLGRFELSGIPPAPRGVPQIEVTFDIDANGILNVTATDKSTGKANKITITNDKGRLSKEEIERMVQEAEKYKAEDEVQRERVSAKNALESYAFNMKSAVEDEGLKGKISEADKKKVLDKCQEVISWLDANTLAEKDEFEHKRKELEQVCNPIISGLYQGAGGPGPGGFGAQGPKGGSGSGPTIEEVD

[3] = target: Intestinal-type alkaline phosphatase (Mus musculus, UniProt P24822); experiment: PubChem AID 488874; format: functional
[4] = target: cGMP-dependent protein kinase 1 (Homo sapiens, UniProt Q13976); format: functional;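 further: value from a kinome panel screen with PRKG1 as the panel member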
[5] = target: Mitogen-activated protein kinase 8 (Homo sapiens, UniProt P45983); format: functional;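 further: value comes from one member of a kinome-wide kinase profiling panel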
Ephrin type-A receptor 2 = Ephrin type-A receptor 2 (Homo sapiens, UniProt P29317); format: functional;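 further: EPHA2 tested as one member of a kinome-wide kinase panel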
Sequence of Ephrin type-A receptor 2 (P29317 whole entry): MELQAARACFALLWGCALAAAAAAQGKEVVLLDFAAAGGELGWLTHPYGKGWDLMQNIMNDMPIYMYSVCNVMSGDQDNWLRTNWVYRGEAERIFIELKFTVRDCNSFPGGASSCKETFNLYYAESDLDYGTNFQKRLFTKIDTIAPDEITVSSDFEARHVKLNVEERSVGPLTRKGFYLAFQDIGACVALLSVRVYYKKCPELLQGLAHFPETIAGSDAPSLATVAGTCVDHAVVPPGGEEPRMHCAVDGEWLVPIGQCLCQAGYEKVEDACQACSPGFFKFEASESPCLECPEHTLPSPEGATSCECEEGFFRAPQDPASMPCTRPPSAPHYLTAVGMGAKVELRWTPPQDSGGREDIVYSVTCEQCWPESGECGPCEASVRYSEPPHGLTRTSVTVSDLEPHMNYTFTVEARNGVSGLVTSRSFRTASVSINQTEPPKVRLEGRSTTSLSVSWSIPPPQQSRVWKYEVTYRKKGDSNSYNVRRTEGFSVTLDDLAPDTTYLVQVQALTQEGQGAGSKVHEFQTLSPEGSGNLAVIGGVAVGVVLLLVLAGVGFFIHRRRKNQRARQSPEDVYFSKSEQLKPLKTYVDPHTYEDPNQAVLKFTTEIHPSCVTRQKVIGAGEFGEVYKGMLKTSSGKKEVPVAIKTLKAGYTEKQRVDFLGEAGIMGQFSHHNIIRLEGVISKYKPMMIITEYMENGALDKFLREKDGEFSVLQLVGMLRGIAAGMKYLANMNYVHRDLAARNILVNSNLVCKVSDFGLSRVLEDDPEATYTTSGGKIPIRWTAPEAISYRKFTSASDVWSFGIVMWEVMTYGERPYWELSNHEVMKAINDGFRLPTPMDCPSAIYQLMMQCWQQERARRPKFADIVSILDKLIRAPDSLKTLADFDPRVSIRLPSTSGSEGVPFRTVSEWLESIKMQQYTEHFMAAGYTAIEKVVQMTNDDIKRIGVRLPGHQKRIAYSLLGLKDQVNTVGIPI

[6] = target: Protein kinase C iota type (Homo sapiens, UniProt P41743); format: functional;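 further: measured within a kinome-wide kinase panel, PRKCI as panel member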
[7] = target: Calcium/calmodulin-dependent protein kinase type 1 (Homo sapiens, UniProt Q14012); format: functional
Sequence of Calcium/calmodulin-dependent protein kinase type 1 (Q14012 whole entry): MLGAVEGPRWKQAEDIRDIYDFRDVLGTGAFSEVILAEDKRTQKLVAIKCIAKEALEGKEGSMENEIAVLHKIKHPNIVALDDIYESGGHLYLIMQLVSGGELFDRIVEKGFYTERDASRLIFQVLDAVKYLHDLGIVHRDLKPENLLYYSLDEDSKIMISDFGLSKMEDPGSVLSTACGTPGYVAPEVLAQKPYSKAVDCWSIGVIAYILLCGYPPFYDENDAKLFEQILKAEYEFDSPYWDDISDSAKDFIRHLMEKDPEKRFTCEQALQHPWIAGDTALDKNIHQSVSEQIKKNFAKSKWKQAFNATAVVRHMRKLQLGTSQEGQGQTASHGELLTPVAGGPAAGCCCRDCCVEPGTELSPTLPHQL

[8] = target: Cyclin-dependent kinase 7 (Homo sapiens, UniProt P50613); format: functional;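 further: value comes from a kinome-wide kinase profiling panel in which CDK7 is one member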
Sequence of Cyclin-dependent kinase 7 (P50613 whole entry): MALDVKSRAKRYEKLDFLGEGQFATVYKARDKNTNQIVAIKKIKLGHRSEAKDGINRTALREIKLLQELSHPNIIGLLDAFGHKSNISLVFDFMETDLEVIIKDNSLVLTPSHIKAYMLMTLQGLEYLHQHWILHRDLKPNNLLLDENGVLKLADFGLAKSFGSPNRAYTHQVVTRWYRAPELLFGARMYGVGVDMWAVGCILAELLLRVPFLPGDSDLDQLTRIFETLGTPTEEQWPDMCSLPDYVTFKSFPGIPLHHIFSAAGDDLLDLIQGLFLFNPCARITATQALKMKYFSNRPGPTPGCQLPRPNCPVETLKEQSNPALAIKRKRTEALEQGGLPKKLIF

[9] = target: Serine/threonine-protein kinase MRCK alpha (Homo sapiens, UniProt Q5VT25); format: functional
Sequence of Serine/threonine-protein kinase MRCK alpha (Q5VT25 whole entry): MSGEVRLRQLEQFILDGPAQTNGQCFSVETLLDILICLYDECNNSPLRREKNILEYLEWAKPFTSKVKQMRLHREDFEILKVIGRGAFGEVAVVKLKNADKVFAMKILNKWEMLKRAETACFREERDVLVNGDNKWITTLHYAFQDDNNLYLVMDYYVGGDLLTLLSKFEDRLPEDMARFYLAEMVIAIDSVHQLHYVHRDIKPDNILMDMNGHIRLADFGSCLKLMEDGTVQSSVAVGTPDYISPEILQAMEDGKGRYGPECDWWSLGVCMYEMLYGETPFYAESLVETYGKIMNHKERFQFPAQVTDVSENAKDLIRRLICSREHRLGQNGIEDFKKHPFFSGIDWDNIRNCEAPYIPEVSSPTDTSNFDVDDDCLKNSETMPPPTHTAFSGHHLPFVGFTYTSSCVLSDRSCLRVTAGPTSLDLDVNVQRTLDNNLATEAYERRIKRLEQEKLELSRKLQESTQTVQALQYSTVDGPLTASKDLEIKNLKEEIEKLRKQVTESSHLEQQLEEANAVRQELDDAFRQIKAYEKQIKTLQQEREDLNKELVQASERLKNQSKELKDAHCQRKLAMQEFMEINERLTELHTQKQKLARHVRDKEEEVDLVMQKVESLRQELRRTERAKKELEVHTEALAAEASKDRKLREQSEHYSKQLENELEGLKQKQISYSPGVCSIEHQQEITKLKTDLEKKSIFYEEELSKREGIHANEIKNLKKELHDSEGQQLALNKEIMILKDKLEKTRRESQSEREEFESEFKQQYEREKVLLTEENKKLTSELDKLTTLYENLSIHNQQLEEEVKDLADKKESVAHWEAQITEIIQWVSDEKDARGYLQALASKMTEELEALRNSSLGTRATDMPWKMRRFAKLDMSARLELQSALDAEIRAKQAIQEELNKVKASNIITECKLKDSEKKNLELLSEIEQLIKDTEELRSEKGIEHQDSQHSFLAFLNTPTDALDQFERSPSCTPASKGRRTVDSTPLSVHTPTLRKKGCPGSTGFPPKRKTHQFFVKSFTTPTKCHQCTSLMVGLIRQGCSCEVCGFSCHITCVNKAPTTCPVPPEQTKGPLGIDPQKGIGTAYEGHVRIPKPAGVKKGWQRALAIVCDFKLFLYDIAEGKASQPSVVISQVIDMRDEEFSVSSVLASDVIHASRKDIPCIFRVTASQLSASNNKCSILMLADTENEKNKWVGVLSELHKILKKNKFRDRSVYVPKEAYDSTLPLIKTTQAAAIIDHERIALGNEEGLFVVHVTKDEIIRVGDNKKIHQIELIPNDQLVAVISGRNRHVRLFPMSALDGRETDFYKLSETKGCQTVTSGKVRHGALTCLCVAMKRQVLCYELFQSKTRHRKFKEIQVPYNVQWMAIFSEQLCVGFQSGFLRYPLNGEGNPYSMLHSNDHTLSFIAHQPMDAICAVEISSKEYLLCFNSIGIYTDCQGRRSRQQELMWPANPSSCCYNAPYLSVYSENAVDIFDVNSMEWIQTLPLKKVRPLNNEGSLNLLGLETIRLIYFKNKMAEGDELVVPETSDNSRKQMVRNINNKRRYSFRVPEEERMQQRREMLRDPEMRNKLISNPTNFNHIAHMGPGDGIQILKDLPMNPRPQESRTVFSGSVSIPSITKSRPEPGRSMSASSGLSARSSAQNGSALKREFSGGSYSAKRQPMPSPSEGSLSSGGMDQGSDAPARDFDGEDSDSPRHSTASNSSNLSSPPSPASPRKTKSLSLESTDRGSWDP

- IC50 (Aminopeptidase N): 17.4 µM (active)
Structure (SMILES): O=C1N=C(NS(=O)(=O)Cc2ccccc2)S/C1=C1\C(=O)Nc2ccccc21

Structure (SMILES): O=C(O)C1Nc2c(O)cc(Cl)c([N+](=O)[O-])c2C2C=CCC12 (centres undefined)
- IC50 [1]: 175 µM (active)
- IC50 [2]: 22.4 µM (active)

Structure (SMILES): Oc1ccc(N=Nc2c(O)ccc3ccccc23)cc1
- IC50 [3]: 17.4 µM (active)

- Ki [4]: 10 nM (active)
- Ki [5]: 2.51 µM (active)
- Ki (Ephrin type-A receptor 2): > 3.16 µM (inactive)
- Ki [6]: 1 µM (active)
- Ki [7]: 100 nM (active)
- pKi [7]: 7
- Ki [8]: 20 nM (active)
- pKi [8]: 7.7
- Ki [9]: 7.94 nM (active)
- pKi [9]: 8.1
Structure (SMILES): Cc1n[nH]c2ccc(-c3cncc(OCC(N)Cc4cccc(Cl)c4)c3)cc12 (centres undefined)
